Results taken from US7875647B2, “Heteroaryl-pyrazole derivatives as cannabinoid CB1 receptor antagonists” (Green Cross Corporation, priority 2006, dated 2011).

These compounds were tested against T1, Cannabinoid-1 receptor (CB1R) (Rattus norvegicus, UniProt P20272) (assay: Cannabinoid-1 receptor (CB1R) binding affinity assay ([3H]CP-55940, rat CB-1 receptor binding protocol)). Settings: IC50(nM), brain tissue of SD rats, [3H]CP-55940, 30° C. 60 min.
T1 construct: The tissue obtained from the brain of SD rats was homogenized; from tissue; host or cells: brain of SD rats (membrane pellet of the homogenate)
T1 sequence (P20272 whole entry): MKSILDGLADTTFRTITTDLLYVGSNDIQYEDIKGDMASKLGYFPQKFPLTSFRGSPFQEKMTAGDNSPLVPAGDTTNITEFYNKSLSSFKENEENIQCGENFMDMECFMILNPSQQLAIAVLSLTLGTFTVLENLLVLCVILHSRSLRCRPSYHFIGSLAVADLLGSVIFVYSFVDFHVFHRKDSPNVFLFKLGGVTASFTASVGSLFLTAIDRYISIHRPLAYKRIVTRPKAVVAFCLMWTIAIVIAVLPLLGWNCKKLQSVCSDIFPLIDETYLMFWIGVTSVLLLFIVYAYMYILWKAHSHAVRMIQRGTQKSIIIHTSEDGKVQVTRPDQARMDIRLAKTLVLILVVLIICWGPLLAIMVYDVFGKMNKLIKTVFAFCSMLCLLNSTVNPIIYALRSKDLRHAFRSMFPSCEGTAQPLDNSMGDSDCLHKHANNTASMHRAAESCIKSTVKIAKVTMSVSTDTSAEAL

Compound	IC50
CCCCCOC(C)(C)c1nnc(-c2nn(-c3ccc(Cl)cc3Cl)c(-c3ccc(Cl)cc3)c2C)s1 [Example 461, 2-(5-(4-chlorophenyl)-1-(2,4-dichlorophenyl)-4-methyl-1H-pyrazol-3-yl)-5-(2-(pentyloxy)propan-2-yl)-1,3,4-thiadiazole]	13.7 nM
CCc1c(-c2nnc(C3(c4ccccc4)CC3)o2)nn(-c2ccc(Cl)cc2Cl)c1-c1ccc(Br)cc1 [Example 177, 2-(5-(4-bromophenyl)-1-(2,4-dichlorophenyl)-4-ethyl-1H-pyrazol-3-yl)-5-(1-phenylcyclopropyl)-1,3,4-oxadiazole]	3.01 nM
CCCCc1cnc(-c2nn(-c3ccc(Cl)cc3Cl)c(-c3ccc(Cl)cc3)c2C)o1 [Example 639, 5-butyl-2-(5-(4-chlorophenyl)-1-(2,4-dichlorophenyl)-4-methyl-1H-pyrazol-3-yl)oxazole]	57.2 nM

Same assay, conditions: brain tissue of SD rats, [3H]CP-55940, 30° C. 60 min; read-out: IC50

IC50	Compound
67.3 nM	Cc1c(-c2nnc([C@H]3C[C@H]3C(=O)N3CCCCC3)o2)nn(-c2ccc(Cl)cc2Cl)c1-c1ccc(Cl)cc1 [Example 242, ((1R,2S)-2-(5-(5-(4-chlorophenyl)-1-(2,4-dichlorophenyl)-4-methyl-1H-pyrazol-3-yl)-1,3,4-oxadiazol-2-yl)cyclopropyl)(piperidin-1-yl)methanone]
34.4 nM	Cc1c(-c2nnc(C3CCC3)s2)nn(-c2ccc(Cl)cc2Cl)c1-c1ccc(Br)cc1 [Example 364, 2-(5-(4-Bromophenyl)-1-(2,4-dichlorophenyl)-4-methyl-1H-pyrazol-3-yl)-5-cyclobutyl-1,3,4-thiadiazole]
97.2 nM	Cc1nnc(-c2nn(-c3ccc(Cl)cc3Cl)c(-c3ccc(Cl)cc3)c2C)s1 [Example 360, 2-(5-(4-chlorophenyl)-1-(2,4-dichlorophenyl)-4-methyl-1H-pyrazol-3-yl)-5-methyl-1,3,4-thiadiazole]
15.4 nM	COCc1c(-c2nnc(C(C)(C)C)o2)nn(-c2ccc(Cl)cc2Cl)c1-c1ccc(Cl)cc1 [Example 205, 2-tert-butyl-5-(5-(4-chlorophenyl)-1-(2,4-dichlorophenyl)-4-(methoxymethyl)-1H-pyrazol-3-yl)-1,3,4-oxadiazole]
14.7 nM	CC(C)(C)c1nnc(-c2nn(-c3ccc(Cl)cc3Cl)c(-c3ccc(Cl)cc3)c2CF)o1 [Example 221, 2-tert-butyl-5-(5-(4-chlorophenyl)-1-(2,4-dichlorophenyl)-4-(fluoromethyl)-1H-pyrazol-3-yl)-1,3,4-oxadiazole]
81.4 nM	Clc1ccc(-c2c(Br)c(-c3nnc(C4CCCCC4)o3)nn2-c2ccc(Cl)cc2Cl)cc1 [Example 341, 2-(4-bromo-5-(4-chlorophenyl)-1-(2,4-dichlorophenyl)-1H-pyrazol-3-yl)-5-cyclohexyl-1,3,4-oxadiazole]
23.3 nM	CCc1c(-c2nnc(C3(C(F)(F)F)CC3)s2)nn(-c2ccc(Cl)cc2Cl)c1-c1ccc(Cl)cc1 [Example 500, 2-(5-(4-chlorophenyl)-1-(2,4-dichlorophenyl)-4-ethyl-1H-pyrazol-3-yl)-5-(1-(trifluoromethyl)cyclopropyl)-1,3,4-thiadiazole]
25.8 nM	CSCc1c(-c2nnc(C(C)(C)C)o2)nn(-c2ccc(Cl)cc2Cl)c1-c1ccc(SC)cc1 [Example 311, 2-tert-butyl-5-(1-(2,4-dichlorophenyl)-5-(4-(methylthio)phenyl)-4-(methylthiomethyl)-1H-pyrazol-3-yl)-1,3,4-oxadiazole]
12.9 nM	Clc1ccc(-c2c(Br)c(-c3nnc(C4(c5ccc(Cl)cc5)CC4)s3)nn2-c2ccc(Cl)cc2Cl)cc1 [Example 547, 2-(4-bromo-5-(4-chlorophenyl)-1-(2,4-dichlorophenyl)-1H-pyrazol-3-yl)-5-(1-(4-chlorophenyl)cyclopropyl)-1,3,4-thiadiazole]
5.74 nM	Cc1ccc(C2(c3nnc(-c4nn(-c5ccc(Cl)cc5Cl)c(-c5ccc(Cl)cc5)c4Cn4cncn4)s3)CC2)cc1 [Example 508, 2-(4-((1H-1,2,4-triazol-1-yl)methyl)-5-(4-chlorophenyl)-1-(2,4-dichlorophenyl)-1H-pyrazol-3-yl)-5-(1-p-tolylcyclopropyl)-1,3,4-thiadiazole]
523 nM	CCCc1nc(-c2nn(-c3ccc(Cl)cc3Cl)c(-c3ccc(Cl)cc3)c2C)n[nH]1 [Example 617, 3-(5-(4-chlorophenyl)-1-(2,4-dichlorophenyl)-4-methyl-1H-pyrazol-3-yl)-5-propyl-1H-1,2,4-triazole]
534 nM	Cc1c(-c2n[nH]c(-c3ccco3)n2)nn(-c2ccc(Cl)cc2Cl)c1-c1ccc(Cl)cc1 [Example 616, 3-(5-(4-chlorophenyl)-1-(2,4-dichlorophenyl)-4-methyl-1H-pyrazol-3-yl)-5-(furan-2-yl)-1H-1,2,4-triazole]
20.5 nM	Cc1c(-c2nnc(C3CCCCC3)s2)nn(-c2ccc(Cl)cc2Cl)c1-c1ccc(Br)cc1 [Example 373, 2-(5-(4-Bromophenyl)-1-(2,4-dichlorophenyl)-4-methyl-1H-pyrazol-3-yl)-5-cyclohexyl-1,3,4-thiadiazole]
348 nM	Cc1c(-c2n[nH]c(C3CCC3)n2)nn(-c2ccc(Cl)cc2Cl)c1-c1ccc(Cl)cc1 [Example 621, 3-(5-(4-chlorophenyl)-1-(2,4-dichlorophenyl)-4-methyl-1H-pyrazol-3-yl)-5-cyclobutyl-1H-1,2,4-triazole]
135 nM	CC(C)(C)c1nnc(-c2nn(-c3ccc(Cl)cc3Cl)c(-c3ccc(Cl)cc3)c2CN2CCOCC2)o1 [Example 293, 4-((3-(5-tert-butyl-1,3,4-oxadiazol-2-yl)-5-(4-chlorophenyl)-1-(2,4-dichlorophenyl)-1H-pyrazol-4-yl)methyl)morpholine]
93 nM	Cc1c(-c2nnn(Cc3ccccn3)n2)nn(-c2ccc(Cl)cc2Cl)c1-c1ccc(Cl)cc1 [Example 584, 2-((5-(5-(4-Chlorophenyl)-1-(2,4-dichlorophenyl)-4-methyl-1H-pyrazol-3-yl)-2H-tetrazol-2-yl)methyl)pyridine]
11.8 nM	CCc1c(-c2nnc(C3(C)CC3)s2)nn(-c2ccc(Cl)cc2Cl)c1-c1ccc(Br)cc1 [Example 470, 2-(5-(4-bromophenyl)-1-(2,4-dichlorophenyl)-4-ethyl-1H-pyrazol-3-yl)-5-(1-methylcyclopropyl)-1,3,4-thiadiazole]
125 nM	CC(C)(C)c1nnc(-c2nn(-c3ccc(Cl)cc3Cl)c(-c3ccc(Cl)cc3)c2CN2CCOC2=O)o1 [Example 307, 3-((3-(5-tert-butyl-1,3,4-oxadiazol-2-yl)-5-(4-chlorophenyl)-1-(2,4-dichlorophenyl)-1H-pyrazol-4-yl)methyl)oxazolidin-2-one]
18.8 nM	CC(C)(C)c1nnc(-c2nn(-c3ccc(Cl)cc3Cl)c(-c3ccc(Br)cc3)c2C=O)o1 [Example 203, 5-(4-bromophenyl)-3-(5-tert-butyl-1,3,4-oxadiazol-2-yl)-1-(2,4-dichlorophenyl)-1H-pyrazole-4-carbaldehyde]
33.7 nM	COC(C)(C)c1nnc(-c2nn(-c3ccc(Cl)cc3Cl)c(-c3ccc(Cl)cc3)c2C)o1 [Example 98, 2-(5-(4-chlorophenyl)-1-(2,4-dichlorophenyl)-4-methyl-1H-pyrazol-3-yl)-5-(2-methoxypropan-2-yl)-1,3,4-oxadiazole]
6.72 nM	CC(O)c1c(-c2nnc(C(C)(C)C)o2)nn(-c2ccc(Cl)cc2Cl)c1-c1ccc(Br)cc1 (centres unmarked) [Example 208, 1-(5-(4-bromophenyl)-3-(5-tert-butyl-1,3,4-oxadiazol-2-yl)-1-(2,4-dichlorophenyl)-1H-pyrazol-4-yl)ethanol]
103 nM	Cc1c(-c2nnnn2Cc2cccnc2)nn(-c2ccc(Cl)cc2Cl)c1-c1ccc(Cl)cc1 [Example 585, 3-((5-(5-(4-Chlorophenyl)-1-(2,4-dichlorophenyl)-4-methyl-1H-pyrazol-3-yl)-1H-tetrazol-1-yl)methyl)pyridine]
13 nM	Cc1c(-c2nnc(C3(c4ccc(Cl)cc4)CCC3)o2)nn(-c2ccc(Cl)cc2Cl)c1-c1ccc(Cl)cc1 [Example 110, 2-(5-(4-chlorophenyl)-1-(2,4-dichlorophenyl)-4-methyl-1H-pyrazol-3-yl)-5-(1-(4-chlorophenyl)cyclobutyl)-1,3,4-oxadiazole]
33.6 nM	Cc1c(-c2nnc(C(C)Cc3ccccc3)s2)nn(-c2ccc(Cl)cc2Cl)c1-c1ccc(Cl)cc1 (centres unmarked) [Example 385, 2-(5-(4-chlorophenyl)-1-(2,4-dichlorophenyl)-4-methyl-1H-pyrazol-3-yl)-5-(1-phenylpropan-2-yl)-1,3,4-thiadiazole]
9.72 nM	CC(C)c1c(-c2nnc(C3(c4ccc(Cl)cc4)CC3)o2)nn(-c2ccc(Cl)cc2Cl)c1-c1ccc(Cl)cc1 [Example 181, 2-(5-(4-chlorophenyl)-1-(2,4-dichlorophenyl)-4-isopropyl-1H-pyrazol-3-yl)-5-(1-(4-chlorophenyl)cyclopropyl)-1,3,4-oxadiazole]
17.3 nM	C=CCOC(C)(C)c1nnc(-c2nn(-c3ccc(Cl)cc3Cl)c(-c3ccc(Cl)cc3)c2C)o1 [Example 237, 2-(2-(allyloxy)propan-2-yl)-5-(5-(4-chlorophenyl)-1-(2,4-dichlorophenyl)-4-methyl-1H-pyrazol-3-yl)-1,3,4-oxadiazole]
19.9 nM	Cc1c(-c2nnc(C3(c4ccccn4)CC3)o2)nn(-c2ccc(Cl)cc2Cl)c1-c1ccc(Cl)cc1 [Example 269, 2-(5-(4-chlorophenyl)-1-(2,4-dichlorophenyl)-4-methyl-1H-pyrazol-3-yl)-5-(1-(pyridin-2-yl)cyclopropyl)-1,3,4-oxadiazole]
196 nM	Cc1c(-c2nnc(-c3cnccn3)o2)nn(-c2ccc(Cl)cc2Cl)c1-c1ccc(Cl)cc1 [Example 10, 2-(5-(4-chlorophenyl)-1-(2,4-dichlorophenyl)-4-methyl-1H-pyrazol-3-yl)-5-(pyrazin-2-yl)-1,3,4-oxadiazole]

Compound	IC50
Clc1ccc(-c2c(Cl)c(-c3nnc(C4CCCCC4)o3)nn2-c2ccc(Cl)cc2Cl)cc1 [Example 335, 2-(4-chloro-5-(4-chlorophenyl)-1-(2,4-dichlorophenyl)-1H-pyrazol-3-yl)-5-cyclohexyl-1,3,4-oxadiazole]	512 nM
